The record followed here is article PMC5155291 (Scientific Reports, 2016).

The target in test [1] is T1, WT hDAT (Homo sapiens, UniProt Q01959).
T1 construct: Synthetic cDNA encoding hDAT subcloned into pcDNA3.1+; expressed in transfected cells; host or cells: PC12 cells (ATCC CRL-1721), transient transfection with pcDNA3.1+ plasmid, Lipofectamine 2000
Kind of test: Kinetic analysis of [3H]DA uptake in the presence or absence of PMA or BIM. Type of test: cell-based. The note with it: 30 min preincubation. The protocol: (§1) To determine whether H547A-induced increase in Vmax was mediated by a phosphorylation-dependent mechanism, kinetic analysis of [^3H]DA uptake was measured in the presence or absence of PKC activator PMA (Tocris, Bristol, UK) or PKC inhibitor BIM (Sigma-Aldrich, St. Louis, MO). The concentrations were chosen based on previous reports. In brief, intact PC12 cells transfected with WT or H547A-hDAT were preincubated with or without PMA or BIM (1 μM, final concentration) for 30 min at 37 °C or room temperature and then incubated with six concentrations of mixed [^3H]DA for 8 min as described above. Nonspecific uptake of each concentration of [^3H]DA (in the presence of 10 μM nomifensine) was subtracted from total uptake to calculate specific DAT-mediated uptake.

In test [2] the target is T2, H547A-hDAT (Homo sapiens, UniProt Q01959, H547A).
T2 construct: Synthetic cDNA encoding hDAT subcloned into pcDNA3.1+; expressed in transfected cells; host or cells: PC12 cells (ATCC CRL-1721), transient transfection with pcDNA3.1+ plasmid
T2 sequence (Q01959 whole entry H547A): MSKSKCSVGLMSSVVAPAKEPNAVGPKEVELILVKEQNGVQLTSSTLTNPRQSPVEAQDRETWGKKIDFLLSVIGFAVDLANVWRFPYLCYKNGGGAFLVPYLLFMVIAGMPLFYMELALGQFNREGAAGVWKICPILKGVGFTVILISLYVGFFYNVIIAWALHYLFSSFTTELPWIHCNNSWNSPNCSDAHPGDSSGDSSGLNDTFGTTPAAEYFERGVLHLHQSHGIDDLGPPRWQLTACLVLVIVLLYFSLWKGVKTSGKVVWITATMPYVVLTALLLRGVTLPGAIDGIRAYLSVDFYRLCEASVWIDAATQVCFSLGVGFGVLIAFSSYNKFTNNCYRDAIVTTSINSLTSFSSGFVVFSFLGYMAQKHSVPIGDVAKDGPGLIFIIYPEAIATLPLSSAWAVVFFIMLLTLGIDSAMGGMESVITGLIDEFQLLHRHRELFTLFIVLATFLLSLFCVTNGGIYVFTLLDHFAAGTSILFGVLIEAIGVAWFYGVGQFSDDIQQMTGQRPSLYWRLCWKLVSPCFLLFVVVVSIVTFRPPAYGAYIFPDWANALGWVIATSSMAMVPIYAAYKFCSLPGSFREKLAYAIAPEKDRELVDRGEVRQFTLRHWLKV
Described as above. Type of test: cell-based. The note with it: 1 μM PMA, 30 min preincubation, 37 °C. The procedure:
as §1

A further test deals with T3, H547D-hDAT (Homo sapiens, UniProt Q01959, H547D).
T3 construct: Synthetic cDNA encoding hDAT subcloned into pcDNA3.1+; expressed in transfected cells; host or cells: PC12 cells (ATCC CRL-1721), transient transfection with pcDNA3.1+ plasmid
T3 sequence (Q01959 whole entry H547D): as the sequence (Q01959 whole entry H547A) above, with A547D counted along it
Kind of test: Inhibition of [3H]DA uptake in intact transfected PC12 cells. It is filed as cell-based. The procedure:
(§2) Cells were lysed in 500 μl of 1% SDS for an hour and radioactivity was measured using a liquid scintillation counter (model Tri-Carb 2900TR; PerkinElmer Life and Analytical Sciences, Waltham, MA). Vmax and Km were determined using Prism 5.0 (GraphPad Software Inc., San Diego, CA).
(§3) Results are presented as mean ± SEM, and n represents the number of independent experiments for each experiment group. Kinetic parameters (Vmax, Km, Bmax, and Kd) were determined from saturation curves by nonlinear regression analysis using a one-site model with variable slope. […] For experiments involving comparisons between unpaired samples, unpaired Student’s t test was used to assess any difference in the kinetic parameters (Vmax, Km, Bmax, Kd or IC50) between WT and mutant; log-transformed values of IC50, Km or Kd were used for the statistical comparisons. Significant differences between samples were analyzed with separate ANOVAs followed by post-hoc tests, as indicated in the results Section of each experiment. All statistical analyses were performed using IBM SPSS Statistics version 20, and differences were considered significant at p < 0.05.

Test [3] deals with T1, WT hDAT. The test is described as above. Type of test: cell-based. The protocol:
as §2, §3

Test [4] addresses T2, H547A-hDAT. Type of test: cell-based. The procedure: as §2, §3
In test [5] the target is T1, WT hDAT. Kind of test: Competitive inhibition / modulation of [3H]WIN 35,428 binding in intact transfected PC12 cells.
For test [6], the target named is T2, H547A-hDAT. The test is described as above. The note with it: Zn2+ 100 μM.

The structures appear in SMILES notation. Like-named read-outs stand apart in the source and are kept apart here.

T1 sequence (Q01959 whole entry): as the sequence (Q01959 whole entry H547A) above, with A547H counted along it

On to `CN(C)CCCn1cc(C2=C(c3c[nH]c4ccccc34)C(=O)NC2=O)c2ccccc21` [BIM, bisindolylmaleimide-I], for which the “increase in the Vmax of [3H]DA uptake relative to control” value at WT hDAT [1] (1 μM BIM) was 98%.

`CCCCCCCCCCCCCC(=O)O[C@@H]1[C@@H](C)[C@@]2(O)[C@@H](C=C(CO)C[C@]3(O)C(=O)C(C)=C[C@@H]23)[C@@H]2C(C)(C)[C@]12OC(C)=O` [PMA, phorbol 12-myristate 13-acetate]: the “decrease in the Vmax of [3H]DA uptake compared to control” value at H547A-hDAT [2] turned out to be 60%; at WT hDAT [1] (1 μM PMA, 37 °C), 40%.

On to `[Cl-].[Cl-].[Zn+2]` [Zn^2+, ZnCl2], for which the “decrease in [3H]DA uptake compared to control” value was 53% on H547D-hDAT (Zn2+ 10 μM); 60% on H547D-hDAT (Zn2+ 100 μM); 25% on WT hDAT [3] (Zn2+ 10 μM); 37% on WT hDAT [3] (Zn2+ 100 μM); 10% at H547A-hDAT [4] (Zn2+ 10 μM, not significant); 38% on H547A-hDAT [4] (Zn2+ 100 μM). The “increase in [3H]WIN 35,428 binding” value at WT hDAT [5] (Zn2+ 10 μM) was 80%; at WT hDAT [5] (Zn2+ 100 μM), 82%; on H547A-hDAT [6] it was 27%.
